Results as given in patent US20250009692A1, “Micronutrient composition to prevent and reverse protein glycation during oxidative stress in human” (priority 2023, published 2025).

Assays:
[1] = system: subunit I of Complex IV (COX-I); assay: Mitobiogenesis In-Cell ELISA, COX-I levels in H9c2 cells; format: cell-based, Rat; details: H9c2 heart muscle cells, 24 hours treatment; FIG. 7
Description: (§1) Mitobiogenesis: MitoBiogenesis™ In-Cell ELISA Kit (Colorimetric) was purchased from Abcam (Cambridge, UK). H9c2 Cells were grown to confluency in 96 well plates and treated with test ingredients for 24 hours at 37° C. Media was removed and cells were washed with Phosphate Buffered Saline provided in the kit. The cells were then fixed and processed as per the protocol provided with the kit. This assay was used to quantify two mitochondrial proteins: subunit I of Complex IV (COX-I) and the 70 kDa subunit of Complex II (SDH-A). No treatment control was used to show relative protein levels in each case.

[2] = system: Microglial Cells (IMG) exposed to Hydrogen Peroxide; assay: Cell Protection from Oxidative Stress (Alamar Blue viability); format: cell-based, mice; details: IMG cells pretreated 24 hours, H2O2 1 hour, 24 hours recovery; FIG. 8
Excerpt: Cell Lines: Rat Cardiomyoblasts (H9c2) were obtained from ATCC (Virginia, USA). […] Cells were maintained in Dulbecco's Modified Eagle's Medium (DMEM) from Thermofisher (MA, USA) supplemented with 10% Fetal Bovine Serum (FBS) from Thermofisher (MA, USA) and 1% Penicillin-Streptomycin (PS) from MilliporeSigma (MA, USA). Microglial Cells (IMG) were obtained from Kerafast (MA, USA). It is an immortalized microglial cell line isolated from the brains of adult mice. Cells were maintained in DMEM supplemented with 10% FBS and 1% PS.
Cell Protection from Oxidative Stress: IMG cells were grown to confluency and pretreated with test compounds for 24 hours at 37° C. Media was removed and cells were exposed to Hydrogen Peroxide for 1 hour at 37° C. After one hour, H2O2 was removed and cells were incubated in DMEM supplemented with 1% BSA for a further 24 hours at 37° C. to allow them to stabilize. Subsequently, cell viability was assessed using Alamar Blue Cell Viability Reagent from Thermofisher (MA, USA). Alamar Blue Reagent is an oxidized form of redox indicator that is blue in color. When incubated with viable cells, the reagent changes color from blue to red and can be measured by absorbance at 570 nm.
We tested protective effects of individual natural compounds and their combinations in microglial cells exposed to oxidative stress generated by hydrogen peroxide.

[3] = system: Succinate Dehydrogenase (SDH) subunit A; assay: Mitobiogenesis In-Cell ELISA, SDH-A levels in H9c2 cells; format: cell-based, Rat; details: H9c2 cardiac muscle cells, 24 hours treatment; FIG. 6
Description: as §1

Row | Molecule | increase of Cox-1 levels compared to control [1] | survival of cells exposed to hydrogen peroxide (viable cells) [2] | increase of SDH levels compared to control [3]
1 | N[C@@H](CS)C(=O)O [cysteine, L Cysteine] | 41% | – | –
2 | O=C([O-])CC(O)C(=O)[O-].[Mg+2] (stereo not drawn) [magnesium malate, Magnesium Malate] | – | about 50% | 86%
3 | CSCC[C@H](N)C(=O)O [methionine, Methionine] | – | about 50% | –
4 | CC(=O)C(=O)[O-].[Na+] [sodium pyruvate, Sodium Pyruvate] | – | – | 54%
5 | Magnesium Citrate | – | about 50% | –
